Target: T1, chicken gizzard smooth muscle myosin subfragment-1 chemically crosslinked to cardiac or skeletal actin (Gallus gallus, UniProt P10587)
T1 construct: chicken gizzard smooth muscle myosin subfragment-1; from tissue; host or cells: chicken gizzard
Test: Smooth muscle myosin ATPase dose response assay (pyruvate kinase/horseradish peroxidase/pyruvate oxidase-coupled, amplex red fluorescence)
Type: biochemical
Details: read-out: IC50 Arithmetic Mean
In short: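 Amplex red fluorescence (480 nm excitation, 615 nm emission) tracked ATP hydrolysis by smooth muscle S1 crosslinked to actin with carbodiimide/N-hydroxysuccinimide. Reactions contained 0.15 mM ATP and 100 mM KCl at pH 7.00, 22° C. IC50 came from a four-parameter logistic fit.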

T1 sequence (P02607 2-151): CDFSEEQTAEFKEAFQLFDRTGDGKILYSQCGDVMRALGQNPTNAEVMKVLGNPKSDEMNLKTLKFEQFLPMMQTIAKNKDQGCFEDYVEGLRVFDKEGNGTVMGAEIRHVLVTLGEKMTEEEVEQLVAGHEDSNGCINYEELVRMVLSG
T1 sequence (P10587 84-789): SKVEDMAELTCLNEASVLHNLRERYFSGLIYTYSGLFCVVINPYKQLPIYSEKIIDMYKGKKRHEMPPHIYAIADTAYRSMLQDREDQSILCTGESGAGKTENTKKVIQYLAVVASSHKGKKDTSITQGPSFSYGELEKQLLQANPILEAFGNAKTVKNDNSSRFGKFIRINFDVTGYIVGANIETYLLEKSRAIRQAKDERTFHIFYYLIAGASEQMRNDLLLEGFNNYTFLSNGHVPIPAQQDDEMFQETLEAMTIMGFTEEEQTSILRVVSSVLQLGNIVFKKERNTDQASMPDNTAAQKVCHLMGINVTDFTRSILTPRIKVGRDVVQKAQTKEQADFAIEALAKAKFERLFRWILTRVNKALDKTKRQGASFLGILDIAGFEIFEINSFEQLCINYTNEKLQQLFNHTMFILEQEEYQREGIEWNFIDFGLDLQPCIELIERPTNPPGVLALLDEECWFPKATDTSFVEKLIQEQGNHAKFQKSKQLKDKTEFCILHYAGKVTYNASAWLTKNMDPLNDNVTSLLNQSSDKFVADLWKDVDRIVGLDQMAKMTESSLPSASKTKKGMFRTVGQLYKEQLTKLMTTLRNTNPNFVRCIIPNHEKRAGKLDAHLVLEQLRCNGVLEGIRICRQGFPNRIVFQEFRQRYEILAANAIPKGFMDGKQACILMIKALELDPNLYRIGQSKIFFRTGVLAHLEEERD

IC50 | SMILES
2520 nM | Cn1cc(-c2nc(NCCc3cccc(F)c3)c(C(=O)NC[C@H]3CCCN3C(=O)OC(C)(C)C)cc2C#N)cn1 [tert-butyl (2R)-2-{[(5-cyano-2-{[2-(3-fluorophenyl)ethyl]amino}-6-(1-methylpyrazol-4-yl)(3-pyridyl))carbonylamino]methyl}pyrrolidinecarboxylate]
3940 nM | COC(=O)CCC(=O)N1CCC[C@@H]1CNC(=O)c1ccc(-c2cnn(C)c2)nc1NCCc1cccc(F)c1 [methyl 4-((2R)-2-{[(2-{[2-(3-fluorophenyl)ethyl]amino}-6-(1-methylpyrazol-4-yl)(3-pyridyl))carbonylamino]methyl}pyrrolidinyl)-4-oxobutanoate]
51.7 nM | N#Cc1ccccc1-c1ccc(C(=O)NC[C@H]2CCC(=O)N2CCCCN)c(NCCc2cccc(F)c2)n1 [N-{[(2R)-1-(4-aminobutyl)-5-oxopyrrolidin-2-yl]methyl}(6-(2-cyanophenyl)-2-{[2-(3-fluorophenyl)ethyl]amino}(3-pyridyl))carboxamide]
836 nM | O=C(NCc1ccno1)c1ccc(-c2ccccc2)nc1NCCc1ccccn1 [N-(isoxazol-5-ylmethyl){6-phenyl-2-[(2-(2-pyridyl)ethyl)amino](3-pyridyl)}carboxamide]
3700 nM | Cc1cc(C(=O)NC[C@H]2CCCN2C(=O)OC(C)(C)C)c(NCCc2cccc(F)c2)nc1-c1cnn(C)c1 [tert-butyl (2R)-2-{[(2-{[2-(3-fluorophenyl)ethyl]amino}-5-methyl-6-(1-methylpyrazol-4-yl)(3-pyridyl))carbonylamino]methyl}pyrrolidinecarboxylate]
5540 nM | N#Cc1ccccc1-c1ccc(C(=O)NC[C@H]2O[C@@H](O)[C@H](O)[C@@H](O)[C@@H]2O)c(NCCc2cccc(F)c2)n1
2620 nM | CC(=O)NCCCNC(=O)c1cc(F)c(-c2cnn(C)c2)nc1NCCc1cccc(F)c1 [N-{3-[(5-fluoro-2-{[2-(3-fluorophenyl)ethyl]amino}-6-(1-methylpyrazol-4-yl)-3-pyridyl)carbonylamino]propyl}acetamide]
2080 nM | Cc1ccc(-c2ccc(C(=O)NCc3cccnc3)c(NCCc3cccc(F)c3)n2)c(Cl)c1 [(6-(2-chloro-4-methylphenyl)-2-{[2-(3-fluorophenyl)ethyl]amino}(3-pyridyl))-N-(3-pyridylmethyl)carboxamide]
963 nM | N#Cc1ccccc1-c1ccc(C(=O)NCC2CCNC2)c(NCCc2cccc(F)c2)n1 (stereo not shown) [(6-(2-cyanophenyl)-2-{[2-(3-fluorophenyl)ethyl]amino}(3-pyridyl))-N-(pyrrolidin-3-ylmethyl)carboxamide]
90 nM | C[C@H](CO)CNC(=O)c1cc(F)c(-c2cnn(C)c2)nc1NCCc1cccc(F)c1 [N-((2S)-3-hydroxy-2-methylpropyl)(5-fluoro-2-{[2-(3-fluorophenyl)ethyl]amino}-6-(1-methylpyrazol-4-yl)(3-pyridyl))carboxamide]
1850 nM | O=C(NCc1cccnc1)c1ccc(-c2ccccc2)nc1NCCC1CCCCC1 [{2-[(2-cyclohexylethyl)amino]-6-phenyl(3-pyridyl)}-N-(3-pyridylmethyl)carboxamide]
12200 nM | N#Cc1ccccc1-c1ccc(C(=O)NCC(=O)NCCC(N)=O)c(NCCc2cccc(F)c2)n1 [N-(2-carbamoylethyl)-2-[(6-(2-cyanophenyl)-2-{[2-(3-fluorophenyl)ethyl]amino}(3-pyridyl))carbonylamino]acetamide]
1580 nM | Cn1cc(-c2nc(NCCc3cccc(F)c3)c(C(=O)NC[C@H]3CCN3)cc2F)cn1 [N-[((2R)azetidin-2-yl)methyl](5-fluoro-2-{[2-(3-fluorophenyl)ethyl]amino}-6-(1-methylpyrazol-4-yl)(3-pyridyl))carboxamide]
2430 nM | O=C(NCc1cccnc1)c1ccc(-c2ccccc2)nc1NCCc1ccccc1O [(2-{[2-(2-hydroxyphenyl)ethyl]amino}-6-phenyl(3-pyridyl))-N-(3-pyridylmethyl)carboxamide]
141 nM | COC(=O)[C@@H](C)CNC(=O)c1cc(F)c(-c2cnn(C)c2)nc1NCCc1cccc(F)c1 [methyl (2S)-3-[(5-fluoro-2-{[2-(3-fluorophenyl)ethyl]amino}-6-(1-methylpyrazol-4-yl)(3-pyridyl))carbonylamino]-2-methylpropanoate]
1630 nM | CS(=O)(=O)N1CCCC[C@H]1CNC(=O)c1ccc(-c2ccccc2C#N)nc1NCCc1cccc(F)c1 [N-{[(2S)-1-(methylsulfonyl)(2-piperidyl)]methyl}(6-(2-cyanophenyl)-2-{[2-(3-fluorophenyl)ethyl]amino}(3-pyridyl))carboxamide]
41 nM | C[C@H](CNC(=O)c1ccc(-c2ccccc2C#N)nc1NCCc1cccc(F)c1)NC(=O)CN
1860 nM | N#Cc1ccccc1-c1ccc(C(=O)NC[C@@H]2CCCN2C(=O)CCN)c(NCCc2cccc(F)c2)n1 [N-{[(2S)-1-(3-aminopropanoyl)pyrrolidin-2-yl]methyl}(6-(2-cyanophenyl)-2-{[2-(3-fluorophenyl)ethyl]amino}(3-pyridyl))carboxamide]
1240 nM | Cn1cc(-c2ccc(C(=O)NCC3CNCC(=O)N3)c(NCCc3cccc(F)c3)n2)cn1 (stereo not shown) [(2-{[2-(3-fluorophenyl)ethyl]amino}-6-(1-methylpyrazol-4-yl)(3-pyridyl))-N-[(6-oxopiperazin-2-yl)methyl]carboxamide]
3870 nM | N#Cc1ccccc1-c1ccc(C(=O)NCC2CCN(C(=O)CCN)CC2)c(NCCc2cccc(F)c2)n1 [N-{[1-(3-aminopropanoyl)(4-piperidyl)]methyl}(6-(2-cyanophenyl)-2-{[2-(3-fluorophenyl)ethyl]amino}(3-pyridyl))carboxamide]
12 nM | Cn1cc(-c2nc(NCCc3cccc(F)c3)c(C(=O)NCc3cccnc3CN)cc2F)cn1 [N-{[2-(aminomethyl)(3-pyridyl)]methyl}(5-fluoro-2-{[2-(3-fluorophenyl)ethyl]amino}-6-(1-methylpyrazol-4-yl)(3-pyridyl))carboxamide]
6560 nM | O=C(NCc1cccnc1)c1ccc(-c2ccncc2)nc1NCCc1ccccn1 [N-(3-pyridylmethyl){6-(4-pyridyl)-2-[(2-(2-pyridyl)ethyl)amino](3-pyridyl)}carboxamide]
1120 nM | COC(=O)NCCNC(=O)c1ccc(-c2ccccc2C#N)nc1NCCc1cccc(F)c1 [(6-(2-cyanophenyl)-2-{[2-(3-fluorophenyl)ethyl]amino}(3-pyridyl))-N-[2-(methoxycarbonylamino)ethyl]carboxamide]
133 nM | N#Cc1ccccc1-c1ccc(C(=O)NC[C@@H]2CCC(=O)N2)c(NCCc2cccc(F)c2)n1 [N-[((2S)-5-oxopyrrolidin-2-yl)methyl](6-(2-cyanophenyl)-2-{[2-(3-fluorophenyl)ethyl]amino}(3-pyridyl))carboxamide]
2640 nM | N#Cc1ccccc1-c1ccc(C(=O)NCCN)c(NCCc2cccc(F)c2)n1 [N-(2-aminoethyl)(6-(2-cyanophenyl)-2-{[2-(3-fluorophenyl)ethyl]amino}(3-pyridyl))carboxamide]
29 nM | N#Cc1ccccc1-c1ccc(C(=O)NCC2CCCC(=O)N2)c(NCCc2cccc(F)c2)n1 (stereo not shown) [(6-(2-cyanophenyl)-2-{[2-(3-fluorophenyl)ethyl]amino}(3-pyridyl))-N-[(6-oxo(2-piperidyl))methyl]carboxamide]
1290 nM | O=C(NCc1ccncc1)c1ccc(-c2ccccc2)nc1NCCc1ccccn1 [{6-phenyl-2-[(2-(2-pyridyl)ethyl)amino](3-pyridyl)}-N-(4-pyridylmethyl)carboxamide]
1210 nM | C[C@@H](CNC(=O)c1ccc(-c2ccccc2C#N)nc1NCCc1cccc(F)c1)NS(C)(=O)=O [N-{(2S)-2-[(methylsulfonyl)amino]propyl}(6-(2-cyanophenyl)-2-{[2-(3-fluorophenyl)ethyl]amino}(3-pyridyl))carboxamide]

SMILES | IC50
CC(C)(C)OC(=O)NCCN1CCC[C@H](NC(=O)c2ccc(-c3ccccc3C#N)nc2NCCc2cccc(F)c2)C1=O (stereo in doubt) [N-(1-{2-[(tert-butoxy)carbonylamino]ethyl}-2-oxo(3-piperidyl))(6-(2-cyanophenyl)-2-{[2-(3-fluorophenyl)ethyl]amino}(3-pyridyl))carboxamide] | 15300 nM
Cn1cc(-c2ccc(C(=O)NC[C@H]3CCCN3C(=O)CCCNC(=O)OC(C)(C)C)c(NCCc3cccc(F)c3)n2)cn1 [N-[((2R)-1-{4-[(tert-butoxy)carbonylamino]butanoyl}pyrrolidin-2-yl)methyl](2-{[2-(3-fluorophenyl)ethyl]amino}-6-(1-methylpyrazol-4-yl)(3-pyridyl))carboxamide] | 3650 nM
CC(C)(C)OC(=O)NCC(=O)N1CCC[C@@H]1CNC(=O)c1cc(F)c(-c2ccccc2C#N)nc1NCCc1cccc(F)c1 [N-[((2R)-1-{2-[(tert-butoxy)carbonylamino]acetyl}pyrrolidin-2-yl)methyl](6-(2-cyanophenyl)-5-fluoro-2-{[2-(3-fluorophenyl)ethyl]amino}(3-pyridyl))carboxamide] | 2790 nM
Cn1cc(-c2ccc(C(=O)NC[C@H]3CCCN3C(=O)CCNC(=O)OC(C)(C)C)c(NCCc3cccc(F)c3)n2)cn1 [N-[((2R)-1-{3-[(tert-butoxy)carbonylamino]propanoyl}pyrrolidin-2-yl)methyl](2-{[2-(3-fluorophenyl)ethyl]amino}-6-(1-methylpyrazol-4-yl)(3-pyridyl))carboxamide] | 5030 nM
CC(C)(C)OC(=O)N[C@@H](CO)C(=O)N1CCC[C@@H]1CNC(=O)c1cc(F)c(-c2cn[nH]c2)nc1NCCc1cccc(F)c1 [N-[((2R)-1-{(2S)-2-[(tert-butoxy)carbonylamino]-3-hydroxypropanoyl}pyrrolidin-2-yl)methyl](5-fluoro-2-{[2-(3-fluorophenyl)ethyl]amino}-6-pyrazol-4-yl(3-pyridyl))carboxamide] | 1000 nM
CC(C)(C)OC(=O)NCc1ccc(CNC(=O)c2ccc(-c3ccccc3C#N)nc2NCCc2cccc(F)c2)nc1 [N-[(5-{[(tert-butoxy)carbonylamino]methyl}(2-pyridyl))methyl](6-(2-cyanophenyl)-2-{[2-(3-fluorophenyl)ethyl]amino}(3-pyridyl))carboxamide] | 68600 nM
